Reference: the supplement of paper PMC5579334
± gives the standard deviation of the averaged measurements.

Experiments:
S1507-2 [1] = assay: % inhibition of CellTiter-Glo viability at highest tested concentration (72 h), relative to DMSO and benzethonium chloride controls; higher = more inhibition
How it was run: (§1)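 For this screen, 384-well plates were preprinted with each compound at five concentrations in 10-fold steps and seeded with MPNST cell lines or primary human Schwann cells at 750–1000 cells per well. Incubation lasted 72 h at 37 °C, 5% CO2, and CellTiter-Glo ATP luminescence, scaled between vehicle and positive-control wells and averaged over duplicates where available, served as viability. Logistic fits with four parameters were applied. Relative IC50 (censored at the top concentration) and drug sensitivity score derive from these fits, and percent inhibition is at the top concentration.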

[2] = system: HSC2 (primary human Schwann cells); assay: as above
How it was run: as §1

YST-1 [3] = assay: as above
How it was run: as §1

[4] = system: HSC1 (primary human Schwann cells); assay: as above
How it was run: as §1

STS26T [5] = assay: as above
How it was run: as §1

HS-Sch-2 [6] = assay: as above
How it was run: as §1

S462 [7] = assay: as above
How it was run: as §1

ST8814 [8] = assay: as above
How it was run: as §1

HS-PSS [9] = assay: as above
How it was run: as §1

S1507-2 [10] = assay: drug sensitivity score (DSS, CellTiter-Glo viability, 72 h) (DSS (dimensionless)); higher = more sensitive; extreme values may be limits of the assay
How it was run: as §1

[11] = system: HSC2 (primary human Schwann cells); assay: as above
How it was run: as §1

YST-1 [12] = assay: as above
How it was run: as §1

[13] = system: HSC1 (primary human Schwann cells); assay: as above
How it was run: as §1

STS26T [14] = assay: as above
How it was run: as §1

HS-Sch-2 [15] = assay: as above
How it was run: as §1

S462 [16] = assay: as above
How it was run: as §1

ST8814 [17] = assay: as above
How it was run: as §1

HS-PSS [18] = assay: as above
How it was run: as §1

S1507-2 [19] = assay: drug sensitivity score (DSS, CellTox-Green cytotoxicity, 72 h) (DSS (dimensionless)); higher = more cytotoxic; extreme values may be limits of the assay
How it was run: (§2)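 MPNST cell lines and primary human Schwann cells were grown for 72 h at 37 °C in 384-well plates containing five 10-fold compound dilutions. CellTox-Green, added before seeding at a final 1:1000 dilution, gave fluorescence from DNA released by disrupted cells, and signals were scaled to vehicle and positive-control wells. Curves were fitted with a four-parameter logistic model. Drug sensitivity score and relative IC50 come from these fits, with IC50 censored at the top concentration.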

[20] = system: HSC2 (primary human Schwann cells); assay: as above
How it was run: as §2

[21] = system: HSC1 (primary human Schwann cells); assay: as above
How it was run: as §2

STS26T [22] = assay: as above
How it was run: as §2

ST8814 [23] = assay: as above
How it was run: as §2

HS-PSS [24] = assay: as above
How it was run: as §2

Row | Compound | % inhibition (S1507-2 [1]) | % inhibition [2] | % inhibition (YST-1 [3]) | % inhibition [4] | % inhibition (STS26T [5]) | % inhibition (HS-Sch-2 [6]) | % inhibition (S462 [7]) | % inhibition (ST8814 [8]) | % inhibition (HS-PSS [9]) | drug sensitivity score (S1507-2 [10]) | drug sensitivity score [11] | drug sensitivity score (YST-1 [12]) | drug sensitivity score [13] | drug sensitivity score (STS26T [14]) | drug sensitivity score (HS-Sch-2 [15]) | drug sensitivity score (S462 [16]) | drug sensitivity score (ST8814 [17]) | drug sensitivity score (HS-PSS [18]) | drug sensitivity score (S1507-2 [19]) | drug sensitivity score [20] | drug sensitivity score [21] | drug sensitivity score (STS26T [22]) | drug sensitivity score (ST8814 [23]) | drug sensitivity score (HS-PSS [24])
1 | COc1cc(OC2CCN(C)CC2)ccc1Nc1ncc2c(n1)n(C1CCCC1)c(=O)n2C [AZ 3146] (max concentration tested 10000 nM) | 87.86 ± 0.87% | 54.7% | 68.7% | 53.1% | 62.1% | 95.6% | 82.8 ± 4.9% | 92.4% | 75.4% | 5.68 ± 1.6 | 2.78 | 6.64 | 2.64 | 6.58 | 8.57 | 9.91 ± 0.79 | 6.15 | 6.35 | 2.07 ± 1.8 | 0.0952 | 0 | 4.54 | 5.94 | 1.72
2 | COc1cc([C@@H]2c3cc4c(cc3[C@@H](O[C@@H]3O[C@@H]5CO[C@@H](C)O[C@H]5[C@H](O)[C@H]3O)[C@H]3COC(=O)[C@H]23)OCO4)cc(OC)c1O [Etoposide] (max concentration tested 10000 nM) | 59.8 ± 1% | 63.6% | 73.5% | 57.3% | 68% | 79.1% | 90.4 ± 2.4% | 70.7% | 33% | 5.59 ± 0.81 | 11.2 | 14.5 | 7.17 | 7.33 | 8.86 | 11.55 ± 0.037 | 5.79 | 3.08 | 1.82 ± 2.4 | 3.62 | 2.21 | 5.16 | 3.52 | 0
3 | NS(=O)(=O)OC[C@@H]1C[C@@H](n2ccc3c(N[C@H]4CCc5ccccc54)ncnc32)C[C@@H]1O [Pevonedistat] (max concentration tested 10000 nM) | 87.5 ± 1.1% | 84.4% | 67.7% | 77.1% | 83.4% | 101% | 96.07 ± 0.96% | 95.6% | 97% | 17.3 ± 1 | 14.3 | 15.2 | 12 | 12.7 | 28 | 23.2 ± 1.4 | 20 | 23.8 | 16.7 ± 2.1 | 3 | 4.84 | 11.7 | 19.3 | 10.7
4 | O=C(c1ccc(C(=O)N2CCC(N3CCCC3)CC2)c(Nc2ccccc2)c1)N1CCC(N2CCCC2)CC1 [UNC1215] (max concentration tested 30000 nM) | 5.34 ± 1.7% | 5.83% | -5.53% | 8.9% | 3.37% | 15.2% | 2.34 ± 0.36% | 13.9% | 20.4% | 0 | 0 | 0 | 0 | 0 | 0.38 | 0 | 0.198 | 0.73 | 0 | 0 | 0 | 0 | 0 | 0
5 | CCOC(=O)CCNc1cc(N2CCc3ccccc3CC2)nc(-c2ccccn2)n1 [GSK-J4] (max concentration tested 100000 nM) | 97.2 ± 1.9% | 96.5% | 100% | 95.8% | 96.1% | 99% | 95.2 ± 0.48% | 97.1% | 99.4% | 13.4 ± 0.92 | 15.2 | 16.3 | 14.8 | 14.6 | 15.9 | 16.3 ± 0.36 | 14.1 | 14.4 | 3.11 ± 4.4 | 7.09 | 7.1 | 8.17 | 6.13 | 4.79
6 | CC(C)(C#N)c1cc(Cn2cncn2)cc(C(C)(C)C#N)c1 [Anastrozole] (max concentration tested 10000 nM) | -9.3 ± 9.7% | -11% | 6.26% | -2.19% | -1.93% | -11.4% | -13.3 ± 6.7% | -7.93% | -11.6% | 0 | 0 | 0 | 0 | 0 | 0 | 0 | 0 | 0 | 0 | 0 | 0 | 0 | 0 | 0
7 | Nc1nccc(-c2c(-c3ccc(F)cc3)ncn2C2CCCCC2)n1 (max concentration tested 10000 nM) | 2.64 ± 7.6% | -0.333% | 33.7% | 9.97% | 1.02% | 29.1% | -4.31 ± 12% | 5.9% | 21.5% | 0 | 0 | 3.26 | 0 | 0 | 0.99 | 0 | 0 | 0.55 | 0 | 0 | 0 | 0 | 0 | 0
8 | C=C(c1ccc(C(=O)O)cc1)c1cc2c(cc1C)C(C)(C)CCC2(C)C [Bexarotene] (max concentration tested 10000 nM) | 22.7 ± 3.6% | -0.128% | -1.34% | 11.7% | -8.14% | 4.76% | -9.52 ± 9.1% | 5.83% | -11.5% | 2.77 ± 0.55 | 0 | 0 | 2.52 | 0 | 0 | 0 | 0 | 0 | 1.23 ± 0.75 | 0 | 0 | 0 | 0 | 0
9 | CCCCCOC(=O)Nc1nc(=O)n([C@@H]2O[C@H](C)[C@@H](O)[C@H]2O)cc1F [Capecitabine] (max concentration tested 10000 nM) | 5.66 ± 1.9% | -3.4% | -6.84% | 1.09% | 12% | -4.92% | -4.78 ± 2.1% | -8.14% | -4.86% | 0 | 0 | 0 | 0 | 0.0023 | 0 | 0 | 0 | 0 | 0 | 0 | 0 | 0 | 0 | 0
10 | C[C@]12CC[C@H](O)CC1=CC[C@@H]1[C@@H]2CC[C@]2(C)C(c3cccnc3)=CC[C@@H]12 [Abiraterone] (max concentration tested 5000 nM) | 17.1 ± 2.1% | 18.7% | 5.69% | 12.6% | 3.38% | 3.26% | 7.79 ± 0.37% | 4.42% | -3.84% | 1.83 ± 2 | 1.01 | 0 | 0.394 | 0 | 0 | 0.775 ± 0.16 | 0 | 0 | 0.133 ± 0.19 | 0 | 0 | 0 | 0 | 0
11 | C=CCNC1=C2C[C@@H](C)C[C@H](OC)[C@H](O)[C@@H](C)/C=C(\C)[C@H](OC(N)=O)[C@@H](OC)/C=C\C=C(/C)C(=O)NC(=CC1=O)C2=O [Tanespimycin] (max concentration tested 10000 nM) | 98 ± 0.1% | 98.2% | 75.3% | 96.8% | 96.1% | 100% | 99.25 ± 0.39% | 96.5% | 89.1% | 20.8 ± 0.74 | 16.7 | 22.6 | 15.9 | 22.2 | 22.4 | 17.9 ± 1.3 | 21 | 19 | 14.6 ± 1.2 | 19.1 | 17.9 | 14 | 7.63 | 5.08
12 | c1ccc([C@H]2CN3CCSC3=N2)cc1 [Levamisole] (max concentration tested 10000 nM) | -5.81 ± 3.8% | 4.5% | 0.96% | -1.64% | 6.7% | -7.3% | 0.12 ± 8.6% | -0.0528% | -6.64% | 0 | 0 | 0 | 0 | 0 | 0 | 0 | 0 | 0 | 0 | 0 | 0 | 0 | 0 | 0
13 | CCC1=C[C@@H]2CN(C1)Cc1c([nH]c3ccccc13)[C@@](C(=O)OC)(c1cc3c(cc1OC)N(C)[C@H]1[C@@](O)(C(=O)OC)[C@H](OC(C)=O)[C@]4(CC)C=CCN5CC[C@]31[C@@H]54)C2 [Vinorelbine] (max concentration tested 10000 nM) | 80.4 ± 4.8% | 88.8% | 94.3% | 78.9% | 94.5% | 98.5% | 99.19 ± 0.43% | 94.7% | 80.5% | 19.1 ± 0.81 | 20.8 | 40.2 | 16.7 | 31.9 | 40.6 | 30.2 ± 0.41 | 20.6 | 24.6 | 19.2 ± 3.6 | 13.5 | 12.5 | 34.4 | 19.7 | 2.69
